One experiment relates to A549. In words: Cytotoxicity against human A549 cells assessed as reduction in cell viability by MTT assay. In kind it is functional, cell-based. A general note: Tetrazolium assays rely on reduction of a dye to a coloured formazan, in cell work by metabolically active cells.
For a further experiment, the system named is HeLa. In words: Cytotoxicity against human HeLa cells assessed as reduction in cell viability by MTT assay. In kind it is functional, cell-based.
The test system of another experiment is Vero. Kind of experiment: Cytotoxicity against African green monkey Vero cells assessed as reduction in cell viability by MTT assay. In kind it is cell-based. The following applies: Chlorocebus sabaeus.
Another experiment relates to KB. In words: Cytotoxicity against human KB cells assessed as reduction in cell viability by MTT assay. In kind it is functional, cell-based.
The test system of another experiment is HT-29. Kind of experiment: Cytotoxicity against human HT-29 cells assessed as reduction in cell viability by MTT assay. In kind it is functional, cell-based.

Molecules are shown by their SMILES. pIC50: −log10 of the molar value.

The term pIC50 denotes −log10 of the IC50, conventionally taken in molar units.

As to `C[C@H]1[C@H](C)CC[C@]2(C(=O)O)CC[C@]3(COC(=O)/C=C/c4ccc(O)cc4)C(=CC[C@@H]4[C@@]5(C)CC[C@H](O)C(C)(C)[C@@H]5CC[C@]43C)[C@H]12`, the pIC50 with A549 was 5.66.
With `CO[C@H]1[C@@H](O)[C@H](O[C@H]2CC[C@@]3(C)[C@H](CC[C@@H]4[C@@H]3CC[C@]3(C)[C@@H](C5=CC(=O)OC5)[C@@H](O)C[C@]43O)C2)O[C@@H](C)[C@@H]1O[C@@H]1O[C@H](CO[C@@H]2O[C@H](CO)[C@@H](O)[C@H](O)[C@H]2O)[C@@H](O)[C@H](O)[C@H]1O`, the pIC50 in the experiment with HeLa, with Vero, in the experiment with KB and in the experiment on HT-29 was less than 5.00 each time.
`CO[C@H]1[C@@H](O)[C@H](O[C@H]2CC[C@@]3(C)[C@H](CC[C@@H]4[C@@H]3CC[C@]3(C)[C@@H]([C@H]5COC(=O)C5)CC[C@]43O)C2)O[C@@H](C)[C@@H]1O[C@@H]1O[C@H](CO[C@@H]2O[C@H](CO)[C@@H](O)[C@H](O)[C@H]2O)[C@@H](O)[C@H](O)[C@H]1O`: the pIC50 in the experiment on HeLa, with Vero, with KB and with HT-29 was less than 5.00 in each case.
`CO[C@@H]1[C@@H](O[C@@H]2O[C@H](CO[C@@H]3O[C@H](CO)[C@@H](O)[C@H](O)[C@H]3O)[C@@H](O)[C@H](O)[C@H]2O)[C@H](C)O[C@@H](O[C@H]2CC[C@@]3(C)[C@H](CC[C@@H]4[C@@H]3CC[C@]3(C)[C@@H]([C@H]5COC(=O)C5)CC[C@]43O)C2)[C@@H]1OC(C)=O`: the pIC50 with HeLa, in the experiment with Vero, in the experiment on KB and with HT-29 was less than 5.00 in each case.
With `CO[C@H]1[C@@H](O)[C@H](C)O[C@@H](O[C@H]2CC[C@@]3(C)[C@H](CC[C@@H]4[C@@H]3CC[C@]3(C)[C@@H](C5=CC(=O)OC5)[C@@H](O)C[C@]43O)C2)[C@@H]1O`, the pIC50 in the experiment on HeLa is 5.21; with Vero, 7.70; in the experiment on KB, 6.30; in the experiment on HT-29, 6.52.
In the same order, the values of `CO[C@H]1[C@@H](O)[C@H](O[C@H]2CC[C@@]3(C)[C@H](CC[C@@H]4[C@@H]3CC[C@]3(C)[C@@H]([C@H]5COC(=O)C5)CC[C@]43O)C2)O[C@@H](C)[C@@H]1O[C@@H]1O[C@H](CO)[C@@H](O)[C@H](O)[C@H]1O` are 5.21, less than 5.00, 5.18 and less than 5.00.
In the same order, the values of `CO[C@@H]1[C@@H](O)[C@H](C)O[C@@H](O[C@H]2CC[C@@]3(C)[C@H](CC[C@@H]4[C@@H]3CC[C@]3(C)[C@@H](C5=CC(=O)OC5)[C@@H](O)C[C@]43O)C2)[C@@H]1O` are 7.10, 5.89, 5.77 and 6.70.
In the same order, the values of `CO[C@H]1[C@@H](O)[C@H](C)O[C@@H](O[C@H]2CC[C@@]3(C)[C@H](CC[C@@H]4[C@@H]3CC[C@]3(C)[C@@H]([C@H]5COC(=O)C5)CC[C@]43O)C2)[C@@H]1O` are 5.03, 5.04, 5.72 and 5.39.
Regarding `CO[C@@H]1[C@@H](O)[C@H](O[C@H]2CC[C@@]3(C)[C@H](CC[C@@H]4[C@@H]3CC[C@]3(C)[C@@H]([C@H]5COC(=O)C5)CC[C@]43O)C2)O[C@@H](C)[C@@H]1O[C@@H]1O[C@H](CO)[C@@H](O)[C@H](O)[C@H]1O`, the pIC50 in the experiment on HeLa is 5.96; in the experiment on Vero it was 6.30; in the experiment with KB it was 5.77; in the experiment with HT-29, 5.15.
`C[C@H]1[C@H](C)CC[C@]2(C(=O)O)CC[C@]3(COC(=O)/C=C\c4ccc(O)cc4)C(=CC[C@@H]4[C@@]5(C)CC[C@H](O)C(C)(C)[C@@H]5CC[C@]43C)[C@H]12`: the pIC50 with HeLa was 5.21.
`CO[C@@H]1[C@@H](O)[C@H](O[C@H]2CC[C@@]3(C)[C@H](CC[C@@H]4[C@@H]3CC[C@]3(C)[C@@H](C5=CC(=O)OC5)[C@@H](O)C[C@]43O)C2)O[C@@H](C)[C@@H]1O[C@@H]1O[C@H](CO[C@@H]2O[C@H](CO)[C@@H](O)[C@H](O)[C@H]2O)[C@@H](O)[C@H](O)[C@H]1O`: the pIC50 in the experiment with HeLa, in the experiment on Vero, in the experiment with KB and with HT-29 was less than 5.00 in each case.
For `CC1(C)CC[C@]2(C(=O)O)CC[C@]3(COC(=O)/C=C\c4ccc(O)cc4)C(=CC[C@@H]4[C@@]5(C)CC[C@H](O)C(C)(C)[C@@H]5CC[C@]43C)[C@@H]2C1`, in the experiment on HT-29, the pIC50 was 6.22.
Turning to `CO[C@@H]1[C@@H](O)[C@H](C)O[C@@H](O[C@H]2CC[C@@]3(C)[C@H](CC[C@@H]4[C@@H]3CC[C@]3(C)[C@@H]([C@H]5COC(=O)C5)CC[C@]43O)C2)[C@@H]1O`, the pIC50 in the experiment with HeLa was 6.30; in the experiment on Vero, 6.22; in the experiment on KB, 7.52; with HT-29, 6.70.
`COc1cccc2c1C(=O)c1c(O)c3c(c(O)c1C2=O)C[C@@](O)(C(=O)CO)C[C@@H]3O[C@H]1C[C@H](N)[C@H](O)[C@H](C)O1` [DOXORUBICIN]: the pIC50 in the experiment on HeLa was 6.85; with Vero it was 5.89; in the experiment with KB, 6.70; with HT-29, 6.05.

The record behind these values is ChEMBL document CHEMBL4414675, “Cytotoxic 20,22-Dihydrodigitoxigenin Glycosides and Other Constituents of Vallaris glabra Stems” (J Nat Prod, 2019).
